We go through seven molecules from patent publication US7378440B2, “Substituted benzoylureido-o-benzoylamides, process for their preparation and their use” (Sanofi-Aventis Deutschland GmbH, priority 2003, dated 2008).

The term IC50 denotes the concentration that gives 50% inhibition. Broadly, the melting point is the temperature of the solid-liquid transition.

The target of data set [1] is T1, human glycogen phosphorylase a (Homo sapiens, UniProt P06737).
T1 sequence (P06737 1-847): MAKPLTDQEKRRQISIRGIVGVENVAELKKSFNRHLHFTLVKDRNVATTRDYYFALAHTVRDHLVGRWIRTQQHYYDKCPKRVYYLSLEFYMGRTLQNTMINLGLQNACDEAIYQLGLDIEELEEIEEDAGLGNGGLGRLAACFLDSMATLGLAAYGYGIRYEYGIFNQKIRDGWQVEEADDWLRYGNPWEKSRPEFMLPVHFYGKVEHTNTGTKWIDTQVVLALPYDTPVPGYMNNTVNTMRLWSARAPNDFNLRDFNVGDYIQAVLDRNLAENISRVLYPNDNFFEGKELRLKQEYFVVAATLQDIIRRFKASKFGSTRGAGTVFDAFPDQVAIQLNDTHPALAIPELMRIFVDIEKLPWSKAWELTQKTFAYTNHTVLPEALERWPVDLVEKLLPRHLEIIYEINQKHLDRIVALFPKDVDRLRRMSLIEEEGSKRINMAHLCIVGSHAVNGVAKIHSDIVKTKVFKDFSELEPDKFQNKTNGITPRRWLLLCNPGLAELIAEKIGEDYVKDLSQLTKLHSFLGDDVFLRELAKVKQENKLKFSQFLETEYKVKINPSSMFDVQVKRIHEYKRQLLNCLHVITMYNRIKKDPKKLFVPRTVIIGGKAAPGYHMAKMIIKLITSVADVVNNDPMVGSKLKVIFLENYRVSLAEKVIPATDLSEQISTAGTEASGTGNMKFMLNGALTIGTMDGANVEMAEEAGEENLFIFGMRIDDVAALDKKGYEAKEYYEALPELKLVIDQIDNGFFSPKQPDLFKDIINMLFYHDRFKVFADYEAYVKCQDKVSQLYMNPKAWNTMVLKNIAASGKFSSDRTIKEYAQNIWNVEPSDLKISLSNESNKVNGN
In words: Glycogen phosphorylase a activity assay. It is filed as biochemical. Particulars: inhibition of GPa measured in reverse direction (glycogen synthesis from glucose 1-phosphate, liberated phosphate, absorption 820 nm). How it is done: Glycogen Phosphorylase a Activity Assay
The effect of compounds on the activity of the active form of glycogen phosphorylase (GPa) was measured in the reverse direction by following the synthesis of glycogen from glucose 1-phosphate by determining the liberation of inorganic phosphate. All the reactions were carried out as duplicate determinations in microtiter plates with 96 wells (Half Area Plates, Costar No 3696), measuring the change in absorption owing to the formation of the reaction product at the wavelength specified hereinafter in a Multiskan Ascent Elisa Reader (Lab Systems, Finland).
In order to measure the GPa enzymic activity in the reverse direction, the general method of Engers et al. (Engers H D, Shechosky S, Madsen N B, Can J Biochem 1970 July;48(7):746-754) was used to measure the conversion of glucose 1-phosphate into glycogen and inorganic phosphate, with the following modifications: human glycogen phosphorylase a (for example with 0.76 mg of protein/ml (Aventis Pharma Deutschland GmbH), dissolved in buffer solution E (25 mM β-glycerophosphate, pH 7.0, 1 mM EDTA and 1 mM dithiothreitol) was diluted with buffer T (50 mM Hepes, pH 7.0, 100 mM KCl, 2.5 mM EDTA, 2.5 mM MgCl2.6H2O) and addition of 5 mg/ml glycogen to a concentration of 10 μg of protein/ml. Test substances were prepared as 10 mM solution in DMSO and diluted to 50 μM with buffer solution T. To 10 μl of this solution were added 10 μl of 37.5 mM glucose, dissolved in buffer solution T, and 5 mg/ml glycogen, plus 10 μt of a solution of human glycogen phosphorylase a (10 μg of protein/ml) and 20 μl of glucose 1-phosphate, 2,5 mM. The baseline glycogen phosphorylase a activity in the absence of test substance was determined by adding 10 μl of buffer solution T (0.1% DMSO). The mixture was incubated at room temperature for 40 minutes, and the liberated […] was measured by the general method of Drueckes et al. (Drueckes P, Schinzel R, Palm D, Anal Biochem 1995 Sep. 1;230(1):173-177) with the following modifications: 50 μl of a stop solution of 7.3 mM ammonium molybdate, 10.9 mM zinc acetate, 3.6% ascorbic acid, 0.9% SDS are added to 50 μl of the enzyme mixture. After incubation at 45° C. for 60 minutes, the absorption at 820 nm was measured. To determine the background absorption, in a separate mixture the stop solution was added immediately after addition of the glucose 1-phosphate solution. […]

With `O=C(NC(=O)c1cc(F)c(F)cc1Cl)Nc1ccccc1C(=O)N1CCC1C(=O)O` (stereo not shown) [Example 5], the melting point stood at 99 °C. Further, in data set [1], the IC50 is 0.03 µM.

On to `COC(=O)[C@H]1CCCN1C(=O)c1ccccc1NC(=O)NC(=O)c1cc(F)c(F)cc1Cl` [Example 4], for which the IC50 in data set [1] stood at 0.57 µM. As for `O=C(NC(=O)c1cc(F)c(F)cc1Cl)Nc1ccccc1C(=O)N1CC(F)(F)CC1C(=O)O` (stereo not shown) [Example 6], the melting point worked out at 102 °C. The IC50 in data set [1] worked out at 1.4 µM. For the molecule `O=C(NC(=O)c1cc(F)c(F)cc1Cl)Nc1ccccc1C(=O)N1C2CCCCC2C[C@H]1C(=O)O` (stereo partly shown) [Example 7], the melting point came out at 125 °C. The 50% inhibitory concentration (IC50) in data set [1] was found to be 4 µM. For `O=C(NC(=O)c1cc(F)c(F)cc1Cl)Nc1ccccc1C(=O)N1CCC[C@@H]1C(=O)O` [Example 1, R-1-{2-[3-(2-Chloro-4,5-difluorobenzoyl)ureido]benzoyl}pyrrolidine-2-carboxylic acid], in that order: 123.5 °C and 0.03 µM. On to `O=C(NC(=O)c1cc(F)c(F)cc1Cl)Nc1ccccc1C(=O)N1CCCC1C(=O)O` (stereo not shown) [Example 3], for which the melting point was 193.1 °C. The IC50 in data set [1] was determined as 0.12 µM. `O=C(NC(=O)c1cc(F)c(F)cc1Cl)Nc1ccccc1C(=O)N1CCC[C@H]1C(=O)O` [Example 2] registered a melting point of 128.4 °C. Also, in data set [1], the IC50 was found to be 2.1 µM.
